Measurements reported in article PMC5419506, “Aromatic amino acids in the cellulose binding domain of Penicillium crustosum endoglucanase EGL1 differentially contribute to the cellulose affinity of the enzyme” (PLoS ONE, 2017).

Target: T1, eGFP-Linker-CBD (CBD domain of Penicillium crustosum endoglucanase EGL1) (Penicillium crustosum, UniProt U6A8H3)
T1 construct: N-terminal eGFP fusion in pET-28a, Ni-column, E. coli BL21(DE3)
T1 sequence (U6A8H3 301-459): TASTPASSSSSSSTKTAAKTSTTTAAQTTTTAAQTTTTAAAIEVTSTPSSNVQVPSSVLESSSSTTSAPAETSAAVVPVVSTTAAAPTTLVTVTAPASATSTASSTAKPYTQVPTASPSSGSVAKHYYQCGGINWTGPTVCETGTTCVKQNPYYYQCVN
Assay: isothermal titration calorimetry
Conditions: 20 mM Tris-HCl pH 7.5, 50 mM NaCl; 25 °C; multi-site binding model; unit not given

- Ka: 2.3E4
Compound: OC[C@H]1O[C@@H](O[C@H]2[C@H](O)[C@@H](O)[C@H](O[C@H]3[C@H](O)[C@@H](O)[C@H](O[C@H]4[C@H](O)[C@@H](O)[C@H](O[C@H]5[C@H](O)[C@@H](O)C(O)O[C@@H]5CO)O[C@@H]4CO)O[C@@H]3CO)O[C@@H]2CO)[C@H](O)[C@@H](O)[C@@H]1O (stereo partly shown) [cellopentose]
